From the METLIN SMRT retention time set (Domingo-Almenara et al. 2019) come the findings set out here.

The data set can be described thus: gradient 5% acetonitrile 3 min, to 50% in 2 min, to 85% in 15 min, held 3 min, 100 µL/min. The conditions noted are these: column: Zorbax Extend-C18 2.1 x 50 mm; eluents: water / acetonitrile, 0.1% formic acid. The method in brief: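 The mobile phases were water and acetonitrile, each with 0.1% formic acid, pumped at 100 μL/min through a Zorbax Extend-C18 column (2.1 × 50 mm, 1.8 μm). Pure standards were injected as mixtures of ~100 molecules and detected by a quadrupole time-of-flight mass spectrometer in positive and negative ionization mode. Retention time came from computationally picked adduct peaks, each inspected by hand.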
In turn, `O=C(Cc1csc(Nc2ccccc2)n1)NCCC1=CCCCC1` returned an RP-LC retention time of 865 s.
With `Cc1[nH]c(=O)[nH]c(=O)c1CCC(=O)Nc1cccc(-c2nc3ccccc3s2)c1` the figure was 672 s; with `O=C1CC(NC(=O)c2cc(C3CC3)on2)CN1` (stereo not given), 563 s.
Compound `CCOC(=O)c1ccc(NC(=O)N2CCCC2c2cc(CC)no2)cc1` (stereo not given) registered an RP-LC retention time of 856 s.
As for `COc1ccccc1OCCNC(=O)c1ccc2c(=O)n(-c3ccccc3)c(N3CCCC3)nc2c1`, the figure is 834 s; as for `C#CCn1c(=O)c2c(ncn2C)n(C)c1=O`, 629 s; as for `COc1ccccc1Oc1c(C)oc2cc(OCC(=O)N[C@H](C)C(=O)O)ccc2c1=O`, 710 s.
As for `O=C(NCCCN1CCOCC1)c1ccc2c(c1)N(C(=O)c1ccc(F)cc1)CC2`, the figure is 615 s.
As for `COc1ccc(S(=O)(=O)N2CCCC(C(=O)Nc3ccccc3F)C2)cc1Cl` (stereo not given), the figure is 985 s; as for `Cc1ccccc1NC(=O)C1C(=O)N(C)C2(C)CC1c1ccccc1O2` (stereo not given), 991 s.
For the compound `CCOC(=O)c1c(S(=O)(=O)N2CCC(C(=O)NCc3ccc(F)cc3)CC2)c(C)n(CC)c1C`, the RP-LC retention time was 835 s.
As for `CN1CC(=O)N(CC(=O)Nc2cccc(C#N)c2)c2ccccc2C1=O`, the figure is 653 s; as for `O=C(Nc1ccc(-c2nnc3n2CCCC3)cc1)C1CC1`, 609 s.
As for `COc1cc(C(=O)Nc2nnc(SCc3nnc(-c4ccccc4)o3)s2)cc(OC)c1OC`, the figure is 871 s; as for `COc1ccccc1CNS(=O)(=O)c1cc(-c2[nH]ncc2C(=O)N2CCCC2)oc1C`, 694 s; as for `Cc1ccccc1-c1noc(-c2cccnc2N2CCN(C)CC2)n1`, 670 s.
As for `CC(C)NC(=O)N1CCc2c(c(-c3nc(-c4cccc(F)c4)no3)nn2C)C1`, the figure is 853 s; as for `Brc1cccc(-c2nnc(Cc3nc(-c4ccc5c(c4)OCO5)no3)o2)c1`, 1060 s.
`O=C(NCc1ccccn1)c1ccc2c(c1)CCCN2S(=O)(=O)c1ccccc1` had an RP-LC retention time of 703 s.
Regarding `COc1ccc(Cl)cc1NC(=O)c1cnc(N2CCN(c3ncccn3)CC2)c2ccccc12`, the RP-LC retention time came to 1090 s.
As for `CCN1CCN(C(=O)C(C)C2CCN(S(=O)(=O)c3ccc(Cl)s3)CC2)CC1` (stereo not given), the figure is 666 s.
`Cn1nccc1C(=O)N1CCC(c2noc(-c3ccncc3)n2)C1` (stereo not given) showed an RP-LC retention time of 642 s.
As for `CCC(C)NC(=O)Cn1c(=O)n(CCCCC(=O)NC2CCCC2)c(=O)c2ccccc21` (stereo not given), the figure is 736 s.
Turning to `O=C(Nc1c2c(nn1-c1cccc(Cl)c1)CSC2)C(=O)N1CCCC1`, the RP-LC retention time was determined as 914 s.
The compound `CCS(=O)(=O)N1CCC(Cc2nncn2Cc2ccccc2)C1` (stereo not given) gave an RP-LC retention time of 643 s.
With `CC(C)CN1CCN(C(=O)c2cn3ccnc(-c4ccccc4)c3n2)CC1` the figure was 606 s; with `CC(=O)N1CCC(C(=O)N2CCC3(CC2)NCc2ccccc2-n2ccnc23)CC1`, 564 s; with `O=C(Nc1cnc(-c2ccccc2)nc1)c1cccc(Cl)c1`, 1050 s.
For `Cn1nccc1C(=O)N1CCC(c2noc(-c3ccccc3)n2)C1` (stereo not given), the RP-LC retention time was found to be 755 s.
Regarding `COc1ccc(NC(=O)Cn2c(C)cc(-c3nnc(-c4ccc(F)cc4)o3)c2C)cc1`, the RP-LC retention time turned out to be 952 s.
As for `Cc1cccc(CNC(=O)C2c3ccccc3CC(=O)N2C)c1` (stereo not given), the figure is 748 s; as for `COCc1nc(C2CCN(C(=O)c3ccco3)C2)no1` (stereo not given), 648 s; as for `C=Cc1ccc(CN2C(=O)N(c3cccc(F)c3)c3ncccc3S2(=O)=O)cc1`, 834 s.
As for `CC1CCN(C(=O)C2c3ccccc3CCN2C(=O)C(C)C)CC1` (stereo not given), the figure is 883 s; as for `O=C1N=C2C(=Nc3ccccc32)C(=O)N1CCN1CCN(c2ccccc2Cl)CC1`, 743 s.
With `O=C(NCCCCCCCCNC(=O)c1cccc2ccccc12)c1cccc2ccccc12` the figure was 1010 s.
Compound `CCc1ccc(-c2cc(C(F)(F)F)on2)cc1S(=O)(=O)N1CCCCC1CC` (stereo not given) registered an RP-LC retention time of 749 s.
Turning to `Cc1cc(C)c(S(=O)(=O)Nc2ccc(-c3cn4ccccc4n3)cc2)cc1C`, the RP-LC retention time worked out at 719 s.
Regarding `Cc1ccc(OCC(=O)N(Cc2ccc(N(C)C)cc2)C2CCS(=O)(=O)C2)cc1C` (stereo not given), the RP-LC retention time was 774 s.
For `Cc1nc(-c2noc(-c3cccnc3)n2)cn1CC(=O)NC1CCCCC1`, the RP-LC retention time is 668 s.
As for `CCN(Cc1ccccc1)C(=O)C1CCN(S(=O)(=O)c2ccc3c(c2)NC(=O)CO3)CC1`, the figure is 852 s; as for `COc1ccc(Cn2ccc3ccc(C(=O)NO)cc32)cc1`, 782 s.
With `O=C(Cc1cccs1)N1CCn2c(nnc2-c2ccccc2)C1` the figure was 679 s.
Consider `CCOc1ccc(-n2cc(-c3nc(-c4ccccn4)no3)c3ccccc3c2=O)cc1`, for which the RP-LC retention time turned out to be 599 s.
As for `Cc1ccc(NC(=O)N2CCc3c(c(-c4nc(C5CC5)no4)nn3C)C2)c(C)c1`, the figure is 834 s; as for `COc1cc(-c2ccc(SCC(=O)c3ccc(C)cc3)nn2)cc(OC)c1OC`, 949 s; as for `COCC(C)Nc1ncnc2c1cnn2-c1cccc(Cl)c1` (stereo not given), 925 s.
With `CN(C)CCNC(=O)c1cn(C)nc1S(=O)(=O)N1CCN(c2ccc(Cl)cc2)CC1` the figure was 672 s; with `Cc1ccc(CNC(=O)C2(C)CN(S(C)(=O)=O)CC(=O)N2c2cc(Cl)ccc2C)cc1` (stereo not given), 829 s.
`Nc1cc(C2CCN(C(=O)c3ccc4c(c3)OCO4)CC2)no1` yielded an RP-LC retention time of 651 s.
As for `O=C(NCCCn1c(-c2ccncc2)nc2cccnc21)Nc1ccc(F)cc1F`, the figure is 652 s.
With `CCC(C)NC(=O)NC1CCN(C2=NS(=O)(=O)C(c3ccc(C)c(C)c3)=C2C)CC1` (stereo not given) the figure was 888 s; with `COc1cc(NC(=O)C2CCN(S(=O)(=O)c3ccc4c(c3)CCCC(=O)N4)CC2)cc(OC)c1`, 762 s.
With `O=C(Cc1nnc(-c2cccc(F)c2)o1)N1CCCCC1` the figure was 630 s; with `O=C(NC1CCCCC1)NC1CCN(C(=O)C2CC2)C1` (stereo not given), 663 s.
The compound `CCc1nnc(-c2ccc(S(=O)(=O)N3CCCC(C)C3)o2)o1` (stereo not given) showed an RP-LC retention time of 906 s.
With `COc1cc(NC(=O)CCc2nc(-c3ccc(N4CCCC4)cc3)no2)cc(OC)c1` the figure was 1070 s; with `O=C(NCC(c1cccnc1)c1c[nH]c2ccccc12)Nc1cccc(Br)c1` (stereo not given), 714 s; with `O=C(CN1C(=O)c2ccccc2C1=O)N1CCc2ccccc2C1`, 755 s.
With `CCc1ccccc1NC(=O)CN1C(=O)NC2(CCCCC2)C1=O` the figure was 761 s; with `CC(=O)N1CCc2ccc(NS(=O)(=O)CCN3C(=O)CCCC3=O)cc21`, 615 s.
With `CC1CCCN(C(=O)c2ccc3ncnc(N4CCCC4)c3c2)C1` (stereo not given) the figure was 640 s; with `CS(=O)(=O)c1ccc2nc(NC(=O)c3ccc([N+](=O)[O-])o3)sc2c1`, 679 s.
In turn, `CCCN(CC(=O)N1CCc2sccc2C1COc1ccccc1OC)C(=O)COC` (stereo not given) gave an RP-LC retention time of 800 s.
`Cc1cc(C(N)=O)c2cc(C(C)C)ccc2n1` had an RP-LC retention time of 591 s.
With `Cc1cc(-c2nn3c(COc4ccc(Cl)cc4)nnc3s2)no1` the figure was 948 s; with `Cc1nc(-c2ccc(C(=O)N3CCOCC3)cc2)no1`, 635 s.
Regarding `COC(=O)c1c(C)c(C(=O)C(C)N(CC(C)C)C(=O)c2ccc(Cl)cc2)c(C)n1C` (stereo not given), the RP-LC retention time turned out to be 1080 s.
With `COCC(CN1CCN(C2=NS(=O)(=O)c3ccccc32)CC1)OC(=O)c1ccc(C)cc1` (stereo not given) the figure was 646 s; with `COc1ccc2[nH]c3c(c2c1)CCNC31CCN(S(=O)(=O)c2cccnc2)CC1`, 634 s; with `Cc1nc(C)c(C(=O)NCC23CCCC=C2N(C)C(=O)CC3)s1` (stereo not given), 682 s.
As for `CCOc1ccc(N2C(=O)C3N=NN(Cc4nc(-c5cccc(Br)c5)no4)C3C2=O)cc1` (stereo not given), the figure is 1080 s; as for `COc1ccccc1N1CCN(c2cc(SCC(=O)NCc3ccc(SC)cc3)ncn2)CC1`, 929 s; as for `CCOC(=O)Cc1csc(NC(=O)CCS(=O)(=O)c2ccccc2)n1`, 844 s.
With `O=C(NC1CCN(C(=O)c2cc(-c3cccs3)[nH]n2)CC1)c1cccs1` the figure was 695 s; with `CCOC(=O)c1c(S(=O)(=O)N2CCC(C(=O)Nc3cccc(OC)c3)CC2)c(C)n(C)c1C`, 834 s; with `Cc1nc2cc(N3CCCC(C(=O)NCCN4CCOCC4)C3)cnc2nc1C` (stereo not given), 557 s.
The compound `Cc1ccc(F)cc1NC(=O)c1csc(-c2cn(C)c3ncccc23)n1` came in with an RP-LC retention time of 1130 s.
With `Cc1ccc(C(=O)Nc2cccn3nc(C(C)C)nc23)cc1C` the figure was 1030 s.
With `CO[C@H]1C(=O)N(C(C)C)[C@H]1C1CCN(C(=O)CCn2cc(C)cn2)CC1` the figure was 654 s.
